Test results taken from publication PMC8748493, “Helical structure motifs made searchable for functional peptide design” (Nature Communications, 2022).
Where no end group is shown, it is not given here.

Legend:
Candida albicans SC5314 = details: SC5314, 24 h
Description: (§1) Contrasting to the simulation results of W3_p1 and W3_p2, W3_db5 has only one Trp (W3) inserted into the bacterial membrane by the end of 1 μs simulation (Supplementary Movie 1 and Supplementary Fig. 3). […] Experiments are performed in pentaplicate and MIC90 is determined as the majority results of the 5 replicates (see “Methods”). It is worth mentioning that we could reproduce the reported MIC90 values for three published AMPs when using the same culture protocol to culture E. coli ATCC 25922. […] The latter result is consistent with the MD-based natural insertion results (Supplementary Fig. 3).
(§2) To measure the antimicrobial activity of peptides, MICs were determined by the broth-dilution assay as described in Clinical and Laboratory Standards Institute (CLSI) documents M27-A3 for yeasts[63] and M07-A9 for bacteria[64] with minor modifications. Briefly, E. coli ATCC 25922 and C. albicans SC5314 were recovered from frozen stock by growing overnight at 37 °C on LB (Luria-Bertani) and YPD (Yeast Extract-Peptone-Dextrose) agar plates, separately. A single colony of E. coli was inoculated into 5 ml LB medium and grown overnight at 37 °C with shaking at 220 rpm. Cells were then diluted into MHB (Mueller–Hinton broth) at 1:100, and grew until the optical density at 600 nm (OD600) reached 0.4 to 0.8. For C. albicans SC5314, a single colony was inoculated in YPD broth and grown overnight at 30 °C with shaking at 180 rpm. Cells from the overnight culture were subcultured into fresh YPD and grew to mid-log phase. Finally, E. coli and C. albicans cells obtained from the above-described were diluted into MHB and LYM, a modified RPMI 1640 medium[65] to a concentration of ~5 × 10^5 cells/ml and ~4 × 10^4 cells/ml, respectively. To determine the MIC values, one hundred microliters of cells was placed in each well of a clear bottom 96-well microplate, followed by independently adding 100 μl peptides with different concentrations (in MHB or LYM). The final concentrations in the wells were 120, 60, 30, 15, 7.5, 3.75, and 1.88 μg/ml for peptides, ~2.5 × 10^5 cells/ml for E. coli and ~2 × 10^4 cells/ml for C. albicans. The plate was incubated at 37 °C with shaking at 220 rpm for 18 h (E. coli) and at 180 rpm for 24 h (C. albicans). The OD600 values were measured using a iMark^TM Microplate Absorbance Reader (Bio-Rad). The MIC90 value was determined by 90% reduction in growth compared with that of the peptide-free growth control. Experiments were performed in pentaplicate, and MIC90 was determined as the majority value out of 5 repeats.

[1] = test system: Escherichia coli ATCC 25922; details: ATCC 25922, 18 h; for E. coli ATCC 25922 killed in the MIC90 experiments: 30
Description: as §1, §2

human RBCs = type: cell-based
Description: The hemolytic toxicity was determined by the hemolysis against human RBCs as in previous publication. First, RBCs from healthy donors were mixed with EDTA in the collecting tubes to inhibit the coagulation. Then the RBCs were washed for three repeats as follows—centrifugation at RCF 800 × g for 10 min, removal of the supernatant, and resuspension with PBS buffer. Such washed RBCs stock was finally diluted with a PBS buffer to be the 10% (v/v) RBCs solution for assays. Then total eight samples of various final concentrations (240, 120, 60, 30, 15, 7.5, 3.75, and 1.88 μg/ml) for each AMP in 96-well microplate were prepared by mixing 10% RBCs and diluted AMP solutions, respectively, at ratio 1:1 (v/v) into final volume 200 μl. All samples were placed under the condition of 37 °C for 1 h and then centrifuged at RCF 800 g for 10 min. Finally, all these supernatants from samples and controls were picked out for the measurement of optical density at the 450 nm wavelength. The data processing was performed to calculate the hemolytic percentage defined as [Asample − Acontrol−]/[Acontrol+ − Acontrol−], where Acontrol+ and Acontrol− are the measurement at wavelength 450 nm for the positive and negative controls, that are 100 μl 10% RBCs suspended in 100 μl PBS buffer with and without 2% (v/v) Triton X-100 (a known detergent to lyse the RBCs), respectively. The final hemolytic percentage for AMPs at various concentrations was determined by the mean values of three repeated experiments, and MHC5 value, defined as the minimal concentration of AMPs leading to at least 5% hemolysis of RBCs, can be determined.

[2] = Circular dichroism, helicity percentage by DichroWeb; type: physicochemical; details: CD spectra 190 to 260 nm
Description: We found W3_db5 adopts a higher helicity than W3_n2 that is found to be more helical than W3_n1 (Fig. 5), where W3_n1 has a helicity closest to Tat, a popular cell-penetrating peptide known to take a random coil structure. This low helicity is consistent with the fact that the “WGN WGG W” stretch in W3_n1 takes mostly coil and sheet structures in its original PDB file (PDB ID: 4F54). The online software DichroWeb[44] provides a helicity percentage prediction for Tat, W3_n1, W3_n2, W3_db5, W3_p1, W3_p2, and CM15 based on their spectra data over the wavelength 190 to 260 nm wavelength −6.5, 2.0, 18.3, 60.2, 57.8, 51.2, and 54%, respectively.
Fig. 5 The CD spectra from 190 to 260 nm for all the examined peptides in the study where CM15[1],[50] is a known helical AMP and Tat, a cell-penetrating peptide (YGRKKRRQRRR) extracted from the transactivating transcriptional activator, is in a random coil structure. All the experimental data are provided as a Source data file.

[3] = test system: Escherichia coli ATCC 25922; details: E. coli ATCC 25922; cited from earlier work
Description: Contrasting to the simulation results of W3_p1 and W3_p2, W3_db5 has only one Trp (W3) inserted into the bacterial membrane by the end of 1 μs simulation (Supplementary Movie 1 and Supplementary Fig. 3). To further examine the bactericidal and anti-fungal activities of these AMPs, we measure the minimal inhibitory concentration (MIC90) at which the growth of 90% of the pathogenic fungus Candida albicans SC5314 and Escherichia coli ATCC 25922 can be inhibited. Experiments are performed in pentaplicate and MIC90 is determined as the majority results of the 5 replicates (see “Methods”). It is wor ...

[4] = cited from earlier work
Description: It should be carefully noted that helicity percentage is also concentration-dependent. NMR-resolved structures are usually determined at a concentration of several mM, while CD spectra measure at a few tens of μM. It has been reported by several studies that the same helical peptide resolved by NMR (at high concentration) has a higher helicity percentage than that of the same measured by CD (at a lower concentration). For instance, an intragenic AMP (PDB ID: 6VLA) has a helicity percentage of 94% according to its NMR-resolved structure but 59% by CD[48]. Similarly, an AMP from Whiteleg shrimp ...

Substance	MIC90 vs. C. albicans (Candida albicans SC5314) [µg/mL]	MIC90 vs. E. coli [1]	reported MIC [3] [µg/mL]	further results
KKWLKWLKWLKKK [W3_p2]	7.5	15 µg/mL		MHC5 (human RBCs): 90 µg/mL
KWKLFKKIGAVLKVL-NH2 (C-terminus assumed) [CM15]			4.0	helicity percentage (DichroWeb, from CD spectra) [2]: 54%; helicity by NMR [4]: 80%; helicity percentage by CD [4]: 65%
GLLKKIKWLL-NH2 (C-terminus assumed) [Anoplin-R5KT8W]			15.1	
KKWKDWESWRLKK [W3_n2]		>>120 μg/ml		E. coli ATCC 25922 killed in the MIC90 experiments [1]: 9.5%
KKWGNWGGWRLKK [W3_n1]		>>120 μg/ml		E. coli ATCC 25922 killed in the MIC90 experiments [1]: 2.5%
KKWKCWARWRLKK [W3_db5]	3.75	30 µg/mL		hemolysis reduction of human RBCs as compared to templates W3-p1 and W3-p2 (human RBCs): 20–40 folds
KKWRKWLKWLAKK [W3_p1]	7.5	15 µg/mL		MHC5 (human RBCs): 120 µg/mL
FKRIVQRIKDFLR-NH2 (C-terminus assumed) [FK13]		25 µg/mL	27.5	
